Data on 1 compound can be found in patent US20110280848A1, “COMPOSITION COMPRISING CHICORIC ACID AND/OR DERIVATIVES THEREOF” (NESTEC S.A., priority 2009, published 2011).

The subject of the experiment is Nrf2-ARE pathway (AREc32 cells). The experiment in a line: Antioxidant Responsive Element (ARE) luciferase assay. The format is cell-based, human. The settings on record: for F/C (Nrf2-luciferase reporter activity): 24 h. The text has this: The pGL-8×ARE which contains eight copies of the ARE present in rat glutathione-S-transferase A2 (GSTA2) along with the pcDNA3.1 plasmid containing the neomycin selectable marker was stably transfected into human MCF7 cells (Wang et al., Cancer Res. 66, 10983-10994, 2006). ARE (antioxidant-responsive element) is the binding site of the transcription factor Nrf2 which regulates the genes involved in detoxification and endogenous defense against oxidative stress. The plasmid pGL-8×ARE contains a luciferase gene downstream of the eight Nrf2 binding sites that allows monitoring Nrf2 activity. For treatment with chicoric acid and related compounds, the AREc 32 cells were seeded 96-well microtiter plates in DMEM growth medium. After treatment of 24 h with the different preparations, firefly luciferase activity was determined.

Regarding `O=C(/C=C/c1ccc(O)c(O)c1)O[C@@H](C(=O)O)[C@@H](OC(=O)/C=C/c1ccc(O)c(O)c1)C(=O)O` [chicoric acid], the “F/C (Nrf2-luciferase reporter activity)” value is, setting by setting: (100 μg/ml) 2580; (200 μg/ml) 4364; (400 μg/ml) 8810; (600 μg/ml) 558; (800 μg/ml) 251; (1000 μg/ml) 346. Moreover, the “Response in Nrf2-luciferase reporter activity” value (saturation inactivation response at higher doses) is recorded as “positive dose-dependent response”.
